ChEMBL document CHEMBL2029256, “Structure-activity relationships of trimethoxybenzyl piperazine N-type calcium channel inhibitors” (Bioorg Med Chem Lett, 2012)

Columns and labels:
[1] = Inhibition of rat N-type calcium channel alpha1B/alpha2delta-1/beta1b expressed in HEK293 cells by whole cell patch clamp analysis; format: cell-based
[2] = molecular target: Voltage-gated inwardly rectifying potassium channel KCNH2 (Homo sapiens, UniProt Q12809); test: Inhibition of human Erg expressed in HEK293 cells by whole cell patch clamp analysis
Rattus norvegicus [3] = species: Rattus norvegicus; test: animal or person; settings: ip, read-out: INH
Rattus norvegicus [4] = test: Antiallodynic activity in rat chung model of neuropathic pain assessed as paw withdrawal at 30 mg/kg, po measured at 30 mins interval for 3 hrs relative to control
Rattus norvegicus [5] = test: Antiallodynic activity in rat chung model of neuropathic pain assessed as inhibition of nerve ligation-induced thermal hyperalgesia at 30 mg/kg, po measured at 30 mins interval for 3 hrs relative to control
[6] = Inhibition of rat L-type calcium channel alpha1C/alpha2delta-1/beta1b expressed in HEK293 cells by whole cell patch clamp analysis; format: cell-based
Rattus norvegicus [7] = species: Rattus norvegicus; test: animal or person; settings: ip, read-out: INH; remark: listed apart in the source
Rattus norvegicus [8] = species: Rattus norvegicus; test: animal or person; settings: ip, read-out: INH; remark: listed apart in the source

Chain of Voltage-gated inwardly rectifying potassium channel KCNH2 (Q12809 whole entry): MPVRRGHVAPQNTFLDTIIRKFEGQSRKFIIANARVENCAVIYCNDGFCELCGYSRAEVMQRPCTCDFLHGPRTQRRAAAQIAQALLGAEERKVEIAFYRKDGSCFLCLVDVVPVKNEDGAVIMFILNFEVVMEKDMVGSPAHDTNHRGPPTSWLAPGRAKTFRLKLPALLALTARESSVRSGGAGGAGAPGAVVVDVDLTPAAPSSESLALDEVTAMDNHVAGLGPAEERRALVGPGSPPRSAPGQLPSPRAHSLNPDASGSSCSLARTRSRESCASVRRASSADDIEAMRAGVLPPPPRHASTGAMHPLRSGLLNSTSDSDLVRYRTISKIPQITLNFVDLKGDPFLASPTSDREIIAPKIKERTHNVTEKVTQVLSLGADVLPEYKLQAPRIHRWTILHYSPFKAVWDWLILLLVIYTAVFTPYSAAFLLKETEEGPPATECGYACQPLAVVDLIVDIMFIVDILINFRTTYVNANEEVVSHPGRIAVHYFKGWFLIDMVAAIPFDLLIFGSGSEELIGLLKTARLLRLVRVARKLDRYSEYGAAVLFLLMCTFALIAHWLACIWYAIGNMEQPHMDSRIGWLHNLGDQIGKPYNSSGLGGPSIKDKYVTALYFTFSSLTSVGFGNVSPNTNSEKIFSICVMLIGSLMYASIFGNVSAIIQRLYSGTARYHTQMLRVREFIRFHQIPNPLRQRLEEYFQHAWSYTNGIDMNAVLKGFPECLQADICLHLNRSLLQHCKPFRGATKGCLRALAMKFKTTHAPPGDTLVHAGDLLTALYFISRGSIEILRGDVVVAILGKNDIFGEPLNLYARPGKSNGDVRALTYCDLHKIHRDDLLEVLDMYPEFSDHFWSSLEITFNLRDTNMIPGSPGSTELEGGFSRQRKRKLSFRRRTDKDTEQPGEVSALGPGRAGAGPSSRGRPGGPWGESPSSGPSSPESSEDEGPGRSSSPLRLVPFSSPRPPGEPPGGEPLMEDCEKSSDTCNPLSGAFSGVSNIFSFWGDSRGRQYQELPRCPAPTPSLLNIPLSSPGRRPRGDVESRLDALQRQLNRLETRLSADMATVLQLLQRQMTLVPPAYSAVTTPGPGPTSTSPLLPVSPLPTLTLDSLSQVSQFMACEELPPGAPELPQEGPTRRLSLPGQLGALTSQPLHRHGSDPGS

| Structure (SMILES) | IC50 [1] [nM] | also measured |
| --- | --- | --- |
| O=C(CCCCC(c1ccc(F)cc1)c1ccc(F)cc1)N1CCN(C(=O)c2cc(C(F)(F)F)cc(C(F)(F)F)c2)CC1 | 510 |  |
| CC(C)(C)c1cc(CN2CCN(C(=O)CCCCC(c3ccc(F)cc3)c3ccc(F)cc3)CC2)cc(C(C)(C)C)c1O | 180 |  |
| O=C(NCC1CCN(CCCCCC(c2ccc(F)cc2)c2ccc(F)cc2)C1)c1cc(C(F)(F)F)cc(C(F)(F)F)c1 (stereo not drawn) | 150 |  |
| CC(C)(C)c1cc(C(=O)N2CCN(C(=O)CCCCC(c3ccc(F)cc3)c3ccc(F)cc3)CC2)cc(C(C)(C)C)c1 | 300 |  |
| O=C(NCC1CCN(C(=O)CCCCC(c2ccc(F)cc2)c2ccc(F)cc2)C1)c1cc(C(F)(F)F)cc(C(F)(F)F)c1 (stereo not drawn) | 210 |  |
| COc1c(C(C)(C)C)cc(C(=O)N2CCC(CNC(=O)CCCCC(c3ccc(F)cc3)c3ccc(F)cc3)C2)cc1C(C)(C)C (stereo not drawn) | 1900 |  |
| CC(C)(C)c1cc(C(=O)NCC2CCN(C(=O)CCCCC(c3ccc(F)cc3)c3ccc(F)cc3)C2)cc(C(C)(C)C)c1 (stereo not drawn) | 110 |  |
| COc1cc(C(=O)NCC2CCN(CCCCCC(c3ccc(F)cc3)c3ccc(F)cc3)C2)cc(OC)c1OC (stereo not drawn) | 280 |  |
| CC(C)(C)c1cc(C(=O)N2CCN(C(=O)CCCCC(c3ccc(F)cc3)c3ccc(F)cc3)CC2)cc(C(C)(C)C)c1O | 220 |  |
| COc1cc(C(=O)NCC2CCN(C(=O)CCCCC(c3ccccc3)C3CCN(C)CC3)C2)cc(OC)c1OC (stereo not drawn) | 3200 |  |
| COc1cc(CN2CCN(CCCCCC(c3ccc(F)cc3)c3ccc(F)cc3)CC2)cc(OC)c1O | 400 |  |
| COc1c(C(C)(C)C)cc(C(=O)N2CCN(CCCCCC(c3ccc(F)cc3)c3ccc(F)cc3)CC2)cc1C(C)(C)C | 110 |  |
| COc1cc(C(=O)N2CCC(CNC(=O)CCCCC(c3ccc(F)cc3)c3ccc(F)cc3)C2)cc(OC)c1OC (stereo not drawn) | 840 | IC50 [2]: 750 nM |
| COc1c(C(C)C)cc(C(=O)NCC2CCN(C(=O)CCCCC(c3ccccc3)C3CCN(C)CC3)C2)cc1C(C)C (stereo not drawn) | 1900 |  |
| CN1CCC(C(CCCCC(=O)N2CCC(CNC(=O)c3cc(Cl)cc(Cl)c3)C2)c2ccccc2)CC1 (stereo not drawn) | 880 |  |
| CC(C)(C)c1cc(C(=O)NC[C@@H]2CCN(C(=O)CCCCC(c3ccc(F)cc3)c3ccc(F)cc3)C2)cc(C(C)(C)C)c1 | 120 |  |
| CC(C)(C)c1cc(C(=O)N2CCN(CCCCCC(c3ccc(F)cc3)c3ccc(F)cc3)CC2)cc(C(C)(C)C)c1O | 150 |  |
| Fc1ccc(C(CCCCCN2CCN(Cc3cc(C(F)(F)F)cc(C(F)(F)F)c3)CC2)c2ccc(F)cc2)cc1 | 1100 |  |
| CC(C)(C)c1cc(CN2CCN(CCCCCC(c3ccc(F)cc3)c3ccc(F)cc3)CC2)cc(C(C)(C)C)c1 | 140 |  |
| COc1cc(CN2CCN(CCCCCC(c3ccc(F)cc3)c3ccc(F)cc3)CC2)cc(OC)c1OC |  | IC50 [2]: 400 nM |
| COc1c(C(C)(C)C)cc(C(=O)NC[C@H]2CCN(C(=O)CCCCC(c3ccc(F)cc3)c3ccc(F)cc3)C2)cc1C(C)(C)C | 150 |  |
| COc1cc(C(=O)N2CCN(C(=O)CCCCC(c3ccc(F)cc3)c3ccc(F)cc3)CC2)cc(OC)c1O | 600 |  |
| O=C(NCC1CCN(C(=O)CCCCC(c2ccc(F)cc2)c2ccc(F)cc2)C1)c1cc(F)cc(C(F)(F)F)c1 (stereo not drawn) | 750 |  |
| CC(C)(C)c1cc(C(=O)NC[C@H]2CCN(C(=O)CCCCC(c3ccc(F)cc3)c3ccc(F)cc3)C2)cc(C(C)(C)C)c1 | 160 |  |

Now from value to compound, other results behind:

| IC50 [1] [nM] | Structure (SMILES) | also measured |
| --- | --- | --- |
| 40 | CC(C)(C)c1cc(CN2CCN(CCCCCC(c3ccc(F)cc3)c3ccc(F)cc3)CC2)cc(C(C)(C)C)c1O | IC50 [2]: 100 nM |
| 60 | COc1cc(CN2CCC(CNCCCCCC(c3ccc(F)cc3)c3ccc(F)cc3)C2)cc(OC)c1OC (stereo not drawn) | IC50 [2]: 100 nM |
| 4 | CC(C)(C)c1cc(CN2CCC(CNCCCCCC(c3ccc(F)cc3)c3ccc(F)cc3)C2)cc(C(C)(C)C)c1O (stereo not drawn) |  |
| 90 | COc1c(C(C)(C)C)cc(C(=O)N2CCN(C(=O)CCCCC(c3ccc(F)cc3)c3ccc(F)cc3)CC2)cc1C(C)(C)C | inhibition in vivo at 30 mg/kg (Rattus norvegicus [3]): 79%; Emax at 30 mg/kg (Rattus norvegicus [4]): 1.9%; Emax at 30 mg/kg (Rattus norvegicus [5]): 54.2% |
| 60 | COc1cc(CNCC2CCN(CCCCCC(c3ccc(F)cc3)c3ccc(F)cc3)C2)cc(OC)c1OC (stereo not drawn) |  |
| 100 | COc1c(C(C)(C)C)cc(CN2CCN(C(=O)CCCCC(c3ccc(F)cc3)c3ccc(F)cc3)CC2)cc1C(C)(C)C |  |
| 90 | COc1c(C(C)(C)C)cc(CN2CCN(CCCCCC(c3ccc(F)cc3)c3ccc(F)cc3)CC2)cc1C(C)(C)C |  |
| 50 | CC(C)(C)c1cc(CNCC2CCN(CCCCCC(c3ccc(F)cc3)c3ccc(F)cc3)C2)cc(C(C)(C)C)c1O (stereo not drawn) |  |
| 30 | CC(C)(C)c1cc(CNCC2CCN(CCCCCC(c3ccc(F)cc3)c3ccc(F)cc3)C2)cc(C(C)(C)C)c1 (stereo not drawn) | IC50 [2]: 460 nM |
| 100 | COc1c(C)cc(C(=O)NCC2CCN(C(=O)CCCCC(c3ccccc3)C3CCN(C)CC3)C2)cc1C (stereo not drawn) |  |
| 90 | O=C(NC[C@@H]1CCN(C(=O)CCCCC(c2ccc(F)cc2)c2ccc(F)cc2)C1)c1cc(C(F)(F)F)cc(C(F)(F)F)c1 |  |
| 32 | COc1c(C(C)(C)C)cc(CN2CCC(CNCCCCCC(c3ccc(F)cc3)c3ccc(F)cc3)C2)cc1C(C)(C)C (stereo not drawn) |  |
| 100 | O=C(NC[C@H]1CCN(C(=O)CCCCC(c2ccc(F)cc2)c2ccc(F)cc2)C1)c1cc(C(F)(F)F)cc(C(F)(F)F)c1 |  |
| 40 | COc1c(C(C)(C)C)cc(C(=O)N2CCN(C(=O)CCCCC(c3ccc(F)cc3)c3ccc(F)cc3)C[C@@H]2C)cc1C(C)(C)C | IC50 [6]: 144000 nM; inhibition in vivo at 30 mg/kg (Rattus norvegicus [3]): 79%; inhibition in vivo at 30 mg/kg (Rattus norvegicus [7]): 61%; inhibition in vivo at 30 mg/kg (Rattus norvegicus [8]): 50%; Emax at 30 mg/kg (Rattus norvegicus [4]): 31.7%; Emax at 30 mg/kg (Rattus norvegicus [5]): 85.8% |
| 10 | COc1c(C(C)(C)C)cc(C(=O)N2CCN(C(=O)CCCCC(c3ccc(F)cc3)c3ccc(F)cc3)[C@@H](C)C2)cc1C(C)(C)C |  |
| 40 | COc1c(C(C)(C)C)cc(C(=O)NCC2CCN(C(=O)CCCCC(c3ccc(F)cc3)c3ccc(F)cc3)C2)cc1C(C)(C)C (stereo not drawn) |  |
